Converted amounts (≈) assume the structure as drawn.
What was measured:
Salmonella typhimurium [1] = test: Antibacterial activity against Salmonella typhimurium harboring delta tolC mutant assessed as bacterial growth inhibition by Muller hinton broth based microdilution assay; assay type: functional, Salmonella enterica subsp. enterica serovar Typhimurium; conditions: Salmonella enterica
Escherichia coli [2] = test: Antibacterial activity against wild type Escherichia coli MG1655 assessed as inhibition of bacterial growth by Muller hinton broth based microdilution assay; assay type: functional
Escherichia coli [3] = test: Antibacterial activity against wild type Escherichia coli MG1655 harboring delta tolC mutant assessed as inhibition of bacterial growth by MOPS based broth microdilution assay; assay type: functional
Salmonella typhimurium [4] = test: Antibacterial activity against wild type Salmonella typhimurium SL1344 assessed as reduction in bacterial growth by Muller hinton broth based microdilution assay; assay type: functional, Salmonella enterica subsp. enterica serovar Typhimurium; conditions: Salmonella enterica
Salmonella typhimurium [5] = test: Antibacterial activity against wild type Salmonella typhimurium SL1344 assessed as reduction in bacterial growth by ALM based microdilution assay; assay type: functional, Salmonella enterica subsp. enterica serovar Typhimurium; conditions: Salmonella enterica
Escherichia coli [6] = test: Antibacterial activity against wild type Escherichia coli MG1655 assessed as inhibition of bacterial growth by MOPS based broth microdilution assay; assay type: functional
Staphylococcus aureus = test: Antibacterial activity against Methicillin-resistant Staphylococcus aureus USA300 assessed as inhibition of bacterial growth by Muller hinton broth based microdilution assay; assay type: functional
Bacillus subtilis = test: Antibacterial activity against Bacillus subtilis 168 assessed as inhibition of bacterial growth by Muller hinton broth based microdilution assay; assay type: functional
Escherichia coli [7] = test: Antibacterial activity against wild type Escherichia coli MG1655 harboring delta tolC mutant assessed as inhibition of bacterial growth by Muller hinton broth based microdilution assay; assay type: functional

Structure (SMILES) | MIC (Salmonella typhimurium [1]) [µg/mL] | MIC (Escherichia coli [2]) [µg/mL] | MIC (Escherichia coli [3]) [µg/mL] | MIC (Salmonella typhimurium [4]) [µg/mL] | MIC (Salmonella typhimurium [5]) [µg/mL] | MIC (Escherichia coli [6]) [µg/mL] | MIC (Staphylococcus aureus) [µg/mL] | MIC (Bacillus subtilis) [µg/mL] | MIC (Escherichia coli [7]) [µg/mL]
CN(C)CCCNC(=O)/C=C/c1ccc(C(F)(F)F)cc1 | > 200 | > 200 | 128 (≈ 426 µM) | > 200 | > 200 | > 200 | > 200 | > 200 | –
CN1C=C2C[C@@H]3[C@H](C[C@@H](CNC(=O)C4CC4c4ccccc4)CN3C)C3C=CC=C1C23 (some centres not stated) | 64 (≈ 154 µM) | > 200 | 10.2 (≈ 24.6 µM) | > 200 | 200 (≈ 481 µM) | > 200 | 64 (≈ 154 µM) | 64 (≈ 154 µM) | 64 (≈ 154 µM)
